The source of these data is the supplement of paper PMC10331698.

What all share (assay): level (log10 ratio to DMSO vehicle control); higher = higher biomarker level / cell amount than vehicle control
Holding throughout (conditions): in DMSO

Compound in one assay: N=C(N)C(F)(F)C(F)(F)C(F)(F)C(F)(F)C(F)(F)C(F)(F)C(F)(F)F [Perfluorooctanamidine]
The protocol: (§1)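 BioMAP Diversity Plus panel of 12 human primary cell co-culture systems (3C, 4H, LPS, SAg, BT, BF4T, BE3C, CASM3C, HDF3CGF, KF3CT, MyoF, Mphg). Compounds were added 1 h before stimulation and left for 24 h (MyoF 48 h; BT 72 h for soluble read-outs or 6 d for IgG). Biomarkers were read by ELISA, cytotoxicity by SRB, PBMC viability and proliferation by Alamar Blue. Each well value was divided by the mean of 8 DMSO control wells on the same plate and log10 transformed; duplicate blinded samples were tested at 4 concentrations.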

Compound in assay [1]: O=C(O)C(F)(F)C(F)(F)C(F)(F)C(F)(F)C(F)(F)C(F)(F)C(F)(F)C(F)(F)C(F)(F)C(F)(F)C(F)(F)C(F)(F)F [Perfluorotridecanoic acid]
The protocol:
as §1

Compound in assay [2]: O=P(O)(O)CCC(F)(F)C(F)(F)C(F)(F)C(F)(F)C(F)(F)C(F)(F)C(F)(F)C(F)(F)F [((Perfluorooctyl)ethyl)phosphonic acid]
Here is the method: as §1

Compound in another assay: Cn1cnc([N+](=O)[O-])c1Sc1ncnc2[nH]cnc12 [Azathioprine]
The protocol:
as §1

Compound in assay [3]: OCC(F)(F)C(F)(F)C(F)(F)C(F)(F)C(F)(F)C(F)F [1H,1H,7H-Dodecafluoro-1-heptanol]
The protocol: as §1

Compound in assay [4]: O=C(O)CCC(F)(F)C(F)(F)C(F)(F)F [3:3 Fluorotelomer carboxylic acid]
The protocol: as §1

± gives the standard deviation of the averaged measurements.

In the case of BF4T:uPA, the “level (log10)” value is -0.0185 ± 0.005 with Perfluorooctanamidine (6700 nM); -0.0225 ± 0.011 with Perfluorooctanamidine (20000 nM); 0.05 with Perfluorooctanamidine (60000 nM); 0.0185 ± 0.018 in assay [1] (1500 nM); 0.011 ± 0.0042 in assay [1] (4400 nM); 0.0095 ± 0.0021 in assay [1] (13000 nM). For the same test system, the “level (log10)” value in assay [1] (40000 nM) was 0.0155 ± 0.005; in assay [2] (6700 nM), 0.008 ± 0.0085; in assay [2] (20000 nM), 0.0185 ± 0.018; in assay [2] (60000 nM), 0.0205 ± 0.057; with Azathioprine (1400 nM) it was 0 ± 0.0099; with Azathioprine (4200 nM), -0.008 ± 0.0042. Also, the “level (log10)” value is -0.033 ± 0.0028 with Azathioprine (13000 nM); -0.026 ± 0.0099 with Azathioprine (38000 nM); -0.0125 ± 0.019 in assay [3] (6700 nM); -0.0145 ± 0.0021 in assay [3] (20000 nM); -0.002 ± 0.0014 in assay [3] (60000 nM); 0.0025 ± 0.016 in assay [4] (6700 nM). In addition, the “level (log10)” value in assay [4] (20000 nM) is 0 ± 0.011; in assay [4] (60000 nM), -0.01 ± 0.031.

For the test system BT:B cell Proliferation, the “level (log10)” value with Perfluorooctanamidine (6700 nM) is -0.0005 ± 0.011; in the assay with Perfluorooctanamidine (20000 nM), -0.002 ± 0.017; with Perfluorooctanamidine (60000 nM), -0.086; in assay [1] (1500 nM), -0.0035 ± 0.052; in assay [1] (4400 nM) it was 0.029 ± 0.016; in assay [1] (13000 nM) it was 0.01 ± 0.011. The “level (log10)” value is 0.0265 ± 0.035 in assay [1] (40000 nM); 0.014 ± 0.021 in assay [2] (6700 nM); -0.0325 ± 0.044 in assay [2] (20000 nM); -0.136 ± 0.058 in assay [2] (60000 nM); -0.0315 ± 0.0064 with Azathioprine (1400 nM); -0.0305 ± 0.0092 with Azathioprine (4200 nM). Besides, the “level (log10)” value was -0.0555 ± 0.005 with Azathioprine (13000 nM); -0.123 ± 0.026 with Azathioprine (38000 nM); -0.014 ± 0.0028 in assay [3] (6700 nM); -0.035 ± 0.0014 in assay [3] (20000 nM); -0.04 ± 0.02 in assay [3] (60000 nM); -0.018 ± 0.0085 in assay [4] (6700 nM). Further, the “level (log10)” value was -0.0115 ± 0.042 in assay [4] (20000 nM) and -0.011 ± 0.02 in assay [4] (60000 nM).

Take BT:PBMC Cytotoxicity: the “level (log10)” value with Perfluorooctanamidine (6700 nM) was 0.005; with Perfluorooctanamidine (20000 nM) it was 0 ± 0.031; in the assay with Perfluorooctanamidine (60000 nM), 0.006; in assay [1] (1500 nM), -0.0035 ± 0.00071; in assay [1] (4400 nM), 0.0245 ± 0.005; in assay [1] (13000 nM), 0.018 ± 0.011. The “level (log10)” value in assay [1] (40000 nM) was determined as 0.0165 ± 0.029; in assay [2] (6700 nM), 0.0055 ± 0.00071; in assay [2] (20000 nM), 0 ± 0.0057; in assay [2] (60000 nM), 0.0095 ± 0.015; with Azathioprine (1400 nM) it was 0.002 ± 0.023; with Azathioprine (4200 nM) it was 0.002 ± 0.018. For the same test system, the “level (log10)” value with Azathioprine (13000 nM) is -0.054 ± 0.017; with Azathioprine (38000 nM), -0.085 ± 0.04; in assay [3] (6700 nM) it was -0.0155 ± 0.0021; in assay [3] (20000 nM), -0.016 ± 0.013; in assay [3] (60000 nM) it was -0.049 ± 0.0028; in assay [4] (6700 nM), 0.0035 ± 0.0064. The “level (log10)” value in assay [4] (20000 nM) turned out to be 0.012 ± 0.017; in assay [4] (60000 nM) it was 0.018 ± 0.014.

BT:Secreted IgG: the “level (log10)” value in the assay with Perfluorooctanamidine (6700 nM) is 0.0115 ± 0.039; with Perfluorooctanamidine (20000 nM), -0.042 ± 0.0042; with Perfluorooctanamidine (60000 nM) it was -0.034; in assay [1] (1500 nM), 0.001 ± 0.042; in assay [1] (4400 nM), -0.0025 ± 0.067; in assay [1] (13000 nM), -0.027 ± 0.052. Further, the “level (log10)” value in assay [1] (40000 nM) was -0.029 ± 0.02; in assay [2] (6700 nM) it was 0.001 ± 0.02; in assay [2] (20000 nM), 0.0005 ± 0.0035; in assay [2] (60000 nM), -0.02 ± 0.0057; with Azathioprine (1400 nM), -0.866 ± 0.086; in the assay with Azathioprine (4200 nM) it was -0.986 ± 0.019. The “level (log10)” value was -0.857 ± 0.054 in the assay with Azathioprine (13000 nM); -0.672 ± 0.0085 with Azathioprine (38000 nM); 0.014 ± 0.025 in assay [3] (6700 nM); -0.01 ± 0.028 in assay [3] (20000 nM); -0.0275 ± 0.03 in assay [3] (60000 nM); -0.011 ± 0.024 in assay [4] (6700 nM). Further, the “level (log10)” value was -0.0295 ± 0.012 in assay [4] (20000 nM) and -0.0155 ± 0.005 in assay [4] (60000 nM).

Turning to BT:sIL-2, the “level (log10)” value is 0.0225 ± 0.057 with Perfluorooctanamidine (6700 nM); -0.01 ± 0.031 with Perfluorooctanamidine (20000 nM); -0.002 with Perfluorooctanamidine (60000 nM); 0.064 in assay [1] (1500 nM); 0.061 ± 0.0042 in assay [1] (4400 nM); 0.0925 ± 0.022 in assay [1] (13000 nM). Further, the “level (log10)” value was 0.093 ± 0.14 in assay [1] (40000 nM); 0.0065 ± 0.036 in assay [2] (6700 nM); 0.067 ± 0.069 in assay [2] (20000 nM); -0.107 ± 0.22 in assay [2] (60000 nM); -0.017 ± 0.11 in the assay with Azathioprine (1400 nM); -0.033 ± 0.1 with Azathioprine (4200 nM). Besides, the “level (log10)” value in the assay with Azathioprine (13000 nM) is -0.164 ± 0.037; with Azathioprine (38000 nM), -0.629 ± 0.044; in assay [3] (6700 nM) it was 0.026 ± 0.013; in assay [3] (20000 nM), -0.0265 ± 0.005; in assay [3] (60000 nM) it was -0.025 ± 0.045; in assay [4] (6700 nM), -0.042 ± 0.13. The “level (log10)” value was -0.0335 ± 0.022 in assay [4] (20000 nM) and 0.0335 ± 0.0021 in assay [4] (60000 nM).

Turning to BT:sIL-6, the “level (log10)” value in the assay with Perfluorooctanamidine (6700 nM) was 0.0205 ± 0.025; with Perfluorooctanamidine (20000 nM), -0.0285 ± 0.016; with Perfluorooctanamidine (60000 nM), -0.097; in assay [1] (1500 nM), 0.033 ± 0.086; in assay [1] (4400 nM), -0.0175 ± 0.026; in assay [1] (13000 nM) it was 0.011 ± 0.12. The “level (log10)” value in assay [1] (40000 nM) is -0.0485 ± 0.066; in assay [2] (6700 nM) it was 0.045 ± 0.0014; in assay [2] (20000 nM) it was 0.0645 ± 0.035; in assay [2] (60000 nM) it was -0.019 ± 0.055; in the assay with Azathioprine (1400 nM), -0.0045 ± 0.042; in the assay with Azathioprine (4200 nM), -0.0485 ± 0.074. Also, the “level (log10)” value in the assay with Azathioprine (13000 nM) is -0.228 ± 0.013; with Azathioprine (38000 nM) it was -0.563 ± 0.0042; in assay [3] (6700 nM), 0.007 ± 0.085; in assay [3] (20000 nM), -0.037 ± 0.014; in assay [3] (60000 nM), -0.113 ± 0.068; in assay [4] (6700 nM), 0.0225 ± 0.056. For the same test system, the “level (log10)” value in assay [4] (20000 nM) came to 0.055 ± 0.065; in assay [4] (60000 nM), 0.0425 ± 0.076.

BT:sIL-17A: the “level (log10)” value with Perfluorooctanamidine (6700 nM) was 0.1795 ± 0.00071; with Perfluorooctanamidine (20000 nM) it was -0.145 ± 0.044; with Perfluorooctanamidine (60000 nM), -0.141; in assay [1] (1500 nM), -0.134 ± 0.0028; in assay [1] (4400 nM), -0.113 ± 0.014; in assay [1] (13000 nM), 0.155 ± 0.15. Besides, the “level (log10)” value in assay [1] (40000 nM) was -0.104 ± 0.11; in assay [2] (6700 nM) it was 0.0985 ± 0.00071; in assay [2] (20000 nM) it was 0.132 ± 0.044; in assay [2] (60000 nM), 0.0985 ± 0.083; in the assay with Azathioprine (1400 nM) it was -0.075 ± 0.078; in the assay with Azathioprine (4200 nM) it was -0.179 ± 0.099. Further, the “level (log10)” value was -0.304 ± 0.0057 with Azathioprine (13000 nM); -0.804 ± 0.058 with Azathioprine (38000 nM); -0.182 ± 0.044 in assay [3] (6700 nM); -0.091 ± 0.14 in assay [3] (20000 nM); -0.174 ± 0.16 in assay [3] (60000 nM); 0.021 ± 0.11 in assay [4] (6700 nM). For the same test system, the figures for the “level (log10)” value in assay [4] (20000 nM) and in assay [4] (60000 nM) were -0.049 ± 0.13 and -0.0765 ± 0.26, respectively.
